Legend:
[1] = target: Deacetylase, Histone 11 (Homo sapiens, UniProt Q96DB2); experiment: Deacetylase, Histone 11 (PanLab); assay type: biochemical; conditions: assay year 2014, read-out: % Control Response
[2] = target: Deacetylase, Histone 10 (Homo sapiens, UniProt Q969S8); experiment: Deacetylase, Histone 10 (PanLab); assay type: biochemical; conditions: assay year 2014, read-out: % Control Response
[3] = tested on: H3K9 ac (increase); experiment: Cell-based stimulation assay; conditions: 10 μM
[4] = target: Deacetylase, Sirtuin SIRT3 (Homo sapiens, UniProt Q9NTG7); experiment: Deacetylase, Sirtuin SIRT3 (PanLab); assay type: biochemical; conditions: assay year 2014, read-out: % Control Response
[5] = target: Deacetylase, Histone 3 (Homo sapiens, UniProt O15379); experiment: Deacetylase, Histone 3 (PanLab); assay type: biochemical; conditions: assay year 2014, read-out: % Control Response
[6] = target: Deacetylase, Sirtuin SIRT2 (Homo sapiens, UniProt Q8IXJ6); experiment: Deacetylase, Sirtuin SIRT2 (PanLab); assay type: biochemical; conditions: assay year 2014, read-out: % Control Response
[7] = target: Deacetylase, Sirtuin SIRT5 (Homo sapiens, UniProt Q9NXA8); experiment: Deacetylase, Sirtuin SIRT5 (PanLab); assay type: biochemical; conditions: assay year 2014, read-out: % Control Response
Sequence of Deacetylase, Sirtuin SIRT5 (Q9NXA8 37-310): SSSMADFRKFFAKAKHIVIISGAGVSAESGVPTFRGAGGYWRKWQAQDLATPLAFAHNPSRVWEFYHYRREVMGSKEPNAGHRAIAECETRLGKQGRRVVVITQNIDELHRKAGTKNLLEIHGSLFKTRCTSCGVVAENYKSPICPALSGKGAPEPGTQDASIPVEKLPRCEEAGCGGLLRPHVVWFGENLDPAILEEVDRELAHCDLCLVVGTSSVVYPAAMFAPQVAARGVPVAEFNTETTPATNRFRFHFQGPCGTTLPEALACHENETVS

[8] = target: Deacetylase, Histone 9 (Homo sapiens, UniProt Q9UKV0); experiment: Deacetylase, Histone 9 (PanLab); assay type: biochemical; conditions: assay year 2014, read-out: % Control Response
[9] = target: T1, FBXL10 (h) (Homo sapiens, UniProt Q8NHM5); experiment: Epigenetic enzyme assay, Demethylases (KDMs); assay type: biochemical; conditions: 10 μM; read-out: % Inhibition of Control Values
T1 sequence (Q8NHM5 1-1336): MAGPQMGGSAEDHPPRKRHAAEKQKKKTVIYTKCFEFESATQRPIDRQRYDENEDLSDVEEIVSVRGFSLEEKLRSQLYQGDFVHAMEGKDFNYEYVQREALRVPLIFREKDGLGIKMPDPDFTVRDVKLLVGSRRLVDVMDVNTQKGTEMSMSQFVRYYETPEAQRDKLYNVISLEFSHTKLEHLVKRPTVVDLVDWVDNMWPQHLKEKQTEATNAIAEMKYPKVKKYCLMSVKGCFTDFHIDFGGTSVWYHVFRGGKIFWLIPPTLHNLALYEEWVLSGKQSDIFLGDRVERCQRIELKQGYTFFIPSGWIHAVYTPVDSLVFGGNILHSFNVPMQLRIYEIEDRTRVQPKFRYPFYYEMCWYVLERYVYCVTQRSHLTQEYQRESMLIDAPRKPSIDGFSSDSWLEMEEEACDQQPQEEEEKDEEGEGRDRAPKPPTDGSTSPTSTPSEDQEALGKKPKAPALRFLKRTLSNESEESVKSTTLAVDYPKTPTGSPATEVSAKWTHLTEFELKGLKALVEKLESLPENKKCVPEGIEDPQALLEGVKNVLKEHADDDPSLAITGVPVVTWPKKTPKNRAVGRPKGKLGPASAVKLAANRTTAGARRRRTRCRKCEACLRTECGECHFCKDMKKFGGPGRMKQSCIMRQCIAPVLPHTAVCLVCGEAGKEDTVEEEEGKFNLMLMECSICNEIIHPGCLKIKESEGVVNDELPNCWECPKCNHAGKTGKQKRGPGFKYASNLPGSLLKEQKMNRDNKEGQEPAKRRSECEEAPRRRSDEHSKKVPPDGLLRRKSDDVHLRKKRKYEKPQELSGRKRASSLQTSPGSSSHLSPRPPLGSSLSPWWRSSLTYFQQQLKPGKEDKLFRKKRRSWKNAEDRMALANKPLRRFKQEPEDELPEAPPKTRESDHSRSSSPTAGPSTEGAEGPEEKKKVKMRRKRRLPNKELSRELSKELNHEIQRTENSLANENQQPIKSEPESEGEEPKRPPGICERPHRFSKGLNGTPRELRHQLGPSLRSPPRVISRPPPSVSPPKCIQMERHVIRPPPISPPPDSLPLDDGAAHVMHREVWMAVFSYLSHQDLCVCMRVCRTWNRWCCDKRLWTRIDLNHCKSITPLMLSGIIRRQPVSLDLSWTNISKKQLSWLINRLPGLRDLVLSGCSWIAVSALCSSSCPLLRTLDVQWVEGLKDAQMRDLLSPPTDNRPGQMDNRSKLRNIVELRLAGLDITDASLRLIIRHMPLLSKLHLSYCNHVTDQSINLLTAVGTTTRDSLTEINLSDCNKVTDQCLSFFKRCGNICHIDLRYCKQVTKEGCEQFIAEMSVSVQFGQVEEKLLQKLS

[10] = target: Deacetylase, Histone 7 (Homo sapiens, UniProt Q8WUI4); experiment: Deacetylase, Histone 7 (PanLab); assay type: biochemical; conditions: assay year 2014, read-out: % Control Response
Sequence of Deacetylase, Histone 7 (Q8WUI4 whole entry): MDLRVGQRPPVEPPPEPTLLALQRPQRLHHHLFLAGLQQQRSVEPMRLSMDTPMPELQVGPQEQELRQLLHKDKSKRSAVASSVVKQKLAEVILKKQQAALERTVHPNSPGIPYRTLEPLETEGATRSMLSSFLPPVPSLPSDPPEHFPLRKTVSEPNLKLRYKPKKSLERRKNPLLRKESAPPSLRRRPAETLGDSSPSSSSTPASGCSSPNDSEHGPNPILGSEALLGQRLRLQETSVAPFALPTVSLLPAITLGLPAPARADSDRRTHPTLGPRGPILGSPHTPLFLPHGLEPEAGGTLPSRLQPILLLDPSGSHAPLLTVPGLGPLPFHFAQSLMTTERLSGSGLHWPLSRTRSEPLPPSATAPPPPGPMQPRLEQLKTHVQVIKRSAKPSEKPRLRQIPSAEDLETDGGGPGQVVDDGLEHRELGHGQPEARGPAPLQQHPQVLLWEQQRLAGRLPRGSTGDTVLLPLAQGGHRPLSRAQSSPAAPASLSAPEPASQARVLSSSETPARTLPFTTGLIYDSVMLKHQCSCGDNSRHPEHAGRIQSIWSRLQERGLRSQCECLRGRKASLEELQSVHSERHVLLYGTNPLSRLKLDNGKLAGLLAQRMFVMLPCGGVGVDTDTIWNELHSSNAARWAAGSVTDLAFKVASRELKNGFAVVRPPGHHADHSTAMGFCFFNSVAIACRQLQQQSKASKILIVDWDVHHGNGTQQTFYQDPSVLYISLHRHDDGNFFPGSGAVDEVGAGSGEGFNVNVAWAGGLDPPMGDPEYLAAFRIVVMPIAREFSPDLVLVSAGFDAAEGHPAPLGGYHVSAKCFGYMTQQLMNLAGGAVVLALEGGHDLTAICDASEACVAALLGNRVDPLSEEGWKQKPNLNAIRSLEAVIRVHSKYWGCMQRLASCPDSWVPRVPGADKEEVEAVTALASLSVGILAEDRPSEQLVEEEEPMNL

[11] = target: Deacetylase, Histone 6 (Homo sapiens, UniProt Q9UBN7); experiment: Deacetylase, Histone 6 (PanLab); assay type: biochemical; conditions: assay year 2014, read-out: % Control Response
[12] = target: Deacetylase, Sirtuin SIRT1 (Homo sapiens, UniProt Q96EB6); experiment: Deacetylase, Sirtuin SIRT1 (PanLab); assay type: biochemical; conditions: assay year 2014, read-out: % Control Response
[13] = tested on: Nitric Oxide Synthase, Inducible (iNOS); experiment: Nitric Oxide Synthase, Inducible (iNOS); assay type: biochemical; conditions: 10 μM; assay year 2014
[14] = target: Nitric Oxide Synthase, Neuronal (nNOS) (Rattus norvegicus, UniProt P29476); experiment: Nitric Oxide Synthase, Neuronal (nNOS); assay type: biochemical; conditions: assay year 2014, read-out: % Control Response
[15] = tested on: H3K27 ac (increase); experiment: Cell-based stimulation assay; conditions: 10 μM
[16] = target: Deacetylase, Histone 5 (Homo sapiens, UniProt Q9UQL6); experiment: Deacetylase, Histone 5 (PanLab); assay type: biochemical; conditions: assay year 2014, read-out: % Control Response
Sequence of Deacetylase, Histone 5 (Q9UQL6 whole entry): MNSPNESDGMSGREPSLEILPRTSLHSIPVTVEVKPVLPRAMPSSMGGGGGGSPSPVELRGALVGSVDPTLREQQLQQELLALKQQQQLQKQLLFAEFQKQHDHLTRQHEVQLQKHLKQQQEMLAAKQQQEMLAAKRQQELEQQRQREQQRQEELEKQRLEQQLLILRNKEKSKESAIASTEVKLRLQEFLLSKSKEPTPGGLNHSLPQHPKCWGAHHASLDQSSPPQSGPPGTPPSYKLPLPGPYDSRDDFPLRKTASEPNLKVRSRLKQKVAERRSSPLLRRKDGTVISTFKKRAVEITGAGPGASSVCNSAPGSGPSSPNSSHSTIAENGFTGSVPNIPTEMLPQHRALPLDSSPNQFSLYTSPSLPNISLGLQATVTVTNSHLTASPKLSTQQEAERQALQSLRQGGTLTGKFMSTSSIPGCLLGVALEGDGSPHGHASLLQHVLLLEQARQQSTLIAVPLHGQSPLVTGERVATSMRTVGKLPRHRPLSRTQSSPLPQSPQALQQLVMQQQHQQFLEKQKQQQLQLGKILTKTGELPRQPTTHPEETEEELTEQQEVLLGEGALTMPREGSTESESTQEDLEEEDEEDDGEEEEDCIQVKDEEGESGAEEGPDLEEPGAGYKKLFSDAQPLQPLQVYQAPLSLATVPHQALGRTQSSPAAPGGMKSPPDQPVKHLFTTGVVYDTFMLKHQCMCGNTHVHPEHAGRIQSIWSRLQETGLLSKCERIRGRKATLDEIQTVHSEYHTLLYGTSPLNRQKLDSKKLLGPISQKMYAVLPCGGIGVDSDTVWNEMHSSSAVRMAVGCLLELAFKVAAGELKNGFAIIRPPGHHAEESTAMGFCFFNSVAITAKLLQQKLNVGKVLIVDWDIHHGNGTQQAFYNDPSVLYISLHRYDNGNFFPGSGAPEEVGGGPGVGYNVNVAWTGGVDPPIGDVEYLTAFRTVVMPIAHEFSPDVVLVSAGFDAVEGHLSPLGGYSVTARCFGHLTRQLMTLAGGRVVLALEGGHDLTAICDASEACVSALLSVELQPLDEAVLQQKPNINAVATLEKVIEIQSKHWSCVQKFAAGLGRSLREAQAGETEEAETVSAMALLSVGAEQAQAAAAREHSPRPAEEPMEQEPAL

[17] = target: hSMYD2 (Homo sapiens, UniProt Q9NRG4); experiment: Epigenetic enzyme assay, Methyltransferases (MTs); assay type: biochemical; conditions: for inhibition at 10 µM: read-out: % Inhibition of Control Values
Sequence of hSMYD2 (Q9NRG4 whole entry): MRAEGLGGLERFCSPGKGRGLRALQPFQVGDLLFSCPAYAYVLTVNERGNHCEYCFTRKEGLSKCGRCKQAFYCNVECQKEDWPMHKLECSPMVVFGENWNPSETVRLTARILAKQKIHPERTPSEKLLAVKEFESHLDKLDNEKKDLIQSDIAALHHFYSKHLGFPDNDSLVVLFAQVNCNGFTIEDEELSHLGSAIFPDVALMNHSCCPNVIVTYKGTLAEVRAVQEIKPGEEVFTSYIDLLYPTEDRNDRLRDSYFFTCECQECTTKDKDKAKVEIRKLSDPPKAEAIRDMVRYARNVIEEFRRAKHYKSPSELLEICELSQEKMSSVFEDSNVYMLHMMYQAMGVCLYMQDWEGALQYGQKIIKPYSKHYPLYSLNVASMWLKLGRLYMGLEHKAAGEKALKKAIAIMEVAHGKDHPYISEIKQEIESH

[18] = tested on: Nitric Oxide Synthase, Endothelial (eNOS); experiment: Nitric Oxide Synthase, Endothelial (eNOS); assay type: biochemical; conditions: 10 μM; assay year 2014
[19] = target: Deacetylase, Histone 8 (Homo sapiens, UniProt Q9BY41); experiment: Deacetylase, Histone 8 (PanLab); assay type: biochemical; conditions: assay year 2014, read-out: % Control Response
Sequence of Deacetylase, Histone 8 (Q9BY41 whole entry): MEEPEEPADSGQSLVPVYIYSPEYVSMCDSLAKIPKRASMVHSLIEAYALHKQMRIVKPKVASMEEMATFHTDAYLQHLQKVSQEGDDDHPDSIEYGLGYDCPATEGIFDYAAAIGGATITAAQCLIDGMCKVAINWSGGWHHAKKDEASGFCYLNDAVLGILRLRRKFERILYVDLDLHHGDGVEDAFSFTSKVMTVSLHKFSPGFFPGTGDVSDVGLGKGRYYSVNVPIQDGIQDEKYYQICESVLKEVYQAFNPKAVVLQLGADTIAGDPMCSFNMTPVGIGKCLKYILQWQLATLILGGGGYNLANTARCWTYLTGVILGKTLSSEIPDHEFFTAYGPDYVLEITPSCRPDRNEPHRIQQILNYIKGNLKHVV

[20] = target: HDAC4 (h) (Homo sapiens, UniProt P56524); experiment: Epigenetic enzyme assay, Histone deacetylase (HDACs); assay type: biochemical; conditions: read-out: % Inhibition of Control Values
Sequence of HDAC4 (h) (P56524 whole entry): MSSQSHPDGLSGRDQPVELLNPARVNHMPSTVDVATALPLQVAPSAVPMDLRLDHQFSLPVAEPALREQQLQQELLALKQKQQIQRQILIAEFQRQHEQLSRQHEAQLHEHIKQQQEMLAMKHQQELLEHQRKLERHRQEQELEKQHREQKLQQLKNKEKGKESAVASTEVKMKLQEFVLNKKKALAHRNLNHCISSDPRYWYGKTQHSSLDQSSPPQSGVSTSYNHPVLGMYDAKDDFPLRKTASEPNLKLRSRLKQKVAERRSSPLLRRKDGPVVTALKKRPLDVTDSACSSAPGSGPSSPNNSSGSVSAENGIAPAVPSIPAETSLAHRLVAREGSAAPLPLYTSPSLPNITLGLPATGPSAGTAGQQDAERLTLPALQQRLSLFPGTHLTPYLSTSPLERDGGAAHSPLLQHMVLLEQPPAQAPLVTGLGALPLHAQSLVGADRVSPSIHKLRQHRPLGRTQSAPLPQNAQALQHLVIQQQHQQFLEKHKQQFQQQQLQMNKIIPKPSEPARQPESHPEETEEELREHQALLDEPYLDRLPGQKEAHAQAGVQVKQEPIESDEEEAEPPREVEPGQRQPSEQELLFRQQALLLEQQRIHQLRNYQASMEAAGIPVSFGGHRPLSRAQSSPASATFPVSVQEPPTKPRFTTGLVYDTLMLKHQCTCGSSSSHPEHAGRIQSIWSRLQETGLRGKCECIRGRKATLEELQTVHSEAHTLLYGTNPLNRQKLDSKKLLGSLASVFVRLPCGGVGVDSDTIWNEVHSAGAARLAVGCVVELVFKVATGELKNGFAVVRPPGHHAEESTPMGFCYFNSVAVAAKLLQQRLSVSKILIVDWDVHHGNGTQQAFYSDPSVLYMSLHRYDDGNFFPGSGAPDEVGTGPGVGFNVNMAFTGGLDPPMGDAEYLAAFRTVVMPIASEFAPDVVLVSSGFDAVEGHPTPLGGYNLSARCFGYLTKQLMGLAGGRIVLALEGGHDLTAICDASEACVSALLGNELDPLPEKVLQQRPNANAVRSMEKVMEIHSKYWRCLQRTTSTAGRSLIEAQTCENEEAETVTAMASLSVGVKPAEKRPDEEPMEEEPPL

[21] = target: Deacetylase, Histone 4 (Homo sapiens, UniProt P56524); experiment: Deacetylase, Histone 4 (PanLab); assay type: biochemical; conditions: assay year 2014, read-out: % Control Response
Sequence of Deacetylase, Histone 4 (P56524 whole entry): as above

[22] = target: Deacetylase, Sirtuin SIRT6 (Homo sapiens, UniProt Q8N6T7); experiment: Deacetylase, Sirtuin SIRT6 (PanLab); assay type: biochemical; conditions: assay year 2014, read-out: % Control Response
[23] = target: sirtuin 1 (h) (activator effect) (Homo sapiens, UniProt Q96EB6); assay type: biochemical; conditions: 10 μM

Sequence of Deacetylase, Histone 10 (Q969S8 whole entry): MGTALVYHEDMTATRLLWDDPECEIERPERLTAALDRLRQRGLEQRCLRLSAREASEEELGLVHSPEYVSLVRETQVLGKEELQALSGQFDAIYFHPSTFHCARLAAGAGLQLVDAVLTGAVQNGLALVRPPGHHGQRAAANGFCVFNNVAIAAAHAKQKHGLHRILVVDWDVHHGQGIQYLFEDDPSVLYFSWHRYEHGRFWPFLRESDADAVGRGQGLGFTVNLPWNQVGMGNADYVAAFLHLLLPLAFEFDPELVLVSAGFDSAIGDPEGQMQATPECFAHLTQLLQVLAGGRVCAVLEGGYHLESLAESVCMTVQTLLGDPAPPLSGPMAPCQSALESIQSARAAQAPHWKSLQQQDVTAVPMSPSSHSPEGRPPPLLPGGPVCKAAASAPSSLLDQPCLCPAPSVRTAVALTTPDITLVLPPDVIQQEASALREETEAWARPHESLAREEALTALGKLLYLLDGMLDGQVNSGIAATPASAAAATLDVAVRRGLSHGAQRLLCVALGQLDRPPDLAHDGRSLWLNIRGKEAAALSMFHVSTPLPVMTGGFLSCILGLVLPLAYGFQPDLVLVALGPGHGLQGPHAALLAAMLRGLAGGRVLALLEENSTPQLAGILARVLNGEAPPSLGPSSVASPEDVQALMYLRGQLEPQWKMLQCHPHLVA

| Structure (SMILES) | remaining activity at 10 µM [1] | remaining activity at 10 µM [2] | % Stimulation Relative to Control [3] | remaining activity at 10 µM [4] | remaining activity at 10 µM [5] | remaining activity at 10 µM [6] | remaining activity at 10 µM [7] | remaining activity at 10 µM [8] | inhibition at 10 µM [9] | remaining activity at 10 µM [10] | remaining activity at 10 µM [11] | remaining activity at 10 µM [12] | % Control Response [13] | remaining activity at 10 µM [14] | % Stimulation Relative to Control [15] | remaining activity at 10 µM [16] | inhibition at 10 µM [17] | % Control Response [18] | remaining activity at 10 µM [19] | inhibition at 10 µM [20] | also measured |
| --- | --- | --- | --- | --- | --- | --- | --- | --- | --- | --- | --- | --- | --- | --- | --- | --- | --- | --- | --- | --- | --- |
| CC(C)=CCC[C@H](CO)[C@@H]1CC[C@@H](C)c2c1cc(C)c(O)c2O [Compound 1, 7,8,18-trihydroxyserrulat-14-ene] | 9% | 11% | −21% | -6% | -5% | 0% | -16% | -14% | 37% | 1% | 0% | 6% | 16% | 14% | −28% | -9% | 12% | 6% | 29% | -73% | remaining activity at 10 µM [21]: 4%; remaining activity at 10 µM [22]: 35%; % Stimulation Relative to Control [23]: −5% |
| CC(C)=CCC[C@@H]1C(O)Oc2c(C)cc(O)c3c2[C@H]1CC[C@H]3C (some centres unmarked) [Compound 2, 5,18-epoxyserrulat-14-en-8,18-diol] | 5% | 9% |  | -9% | 25% | 26% | 24% | -13% | 7% | -16% | -17% | -3% | 7% | 5% |  | -11% | 5% | 5% | 13% | -20% | remaining activity at 10 µM [21]: -5%; remaining activity at 10 µM [22]: 18% |
| CC(C)=CCC[C@@H]1COc2c(C)cc(O)c3c2[C@H]1CC[C@H]3C [Compound 3, 5,18-epoxy-8-hydroxyserrulat-14-ene] |  |  | −8% |  |  |  |  |  | 22% |  |  |  |  |  | −25% |  | -12% |  |  | -11% | % Stimulation Relative to Control [23]: −4% |
| Nc1ncnc2c1ncn2[C@@H]1O[C@H](CSCC[C@H](N)C(=O)O)[C@@H](O)[C@H]1O [SAH] |  |  |  |  |  |  |  |  |  |  |  |  |  |  |  |  |  |  |  |  | IC50 ([17]; read-out: Reference IC50): 160 nM |
